# What was measured:
# [1] = Thermodynamic solubility of the compound by quantitative nitrogen detection assay; format: physicochemical; conditions: read-out: Therm_solubility
# [2] = Plasma concentration in CD1 mouse at 10 mg/kg, ip measured after 0.5 hrs by LC-MS/MS analysis; format: ADME, organism-based
# [3] = Plasma concentration in CD1 mouse at 10 mg/kg, ip measured after 2 hrs by LC-MS/MS analysis; format: ADME, organism-based
# [4] = Plasma concentration in CD1 mouse at 10 mg/kg, ip measured after 4 hrs by LC-MS/MS analysis; format: ADME, organism-based
# [5] = Plasma concentration in CD1 mouse at 10 mg/kg, ip measured after 7 hrs by LC-MS/MS analysis; format: ADME, organism-based
# Mus musculus [6] = test: AUC (0 to 7 hrs) in CD1 mouse at 10 mg/kg, ip measured after 7 hrs by LC-MS/MS analysis; format: ADME, organism-based; parameters: dose 10 mg/kg, time < 7 hr, route intraperitoneal; conditions: in vivo
# [7] = Metabolic stability in CD1 mouse liver microsomes assessed as half life at 1 uM in presence of NADPH by LC-MS/MS analysis; format: ADME, microsome
# Mus musculus [8] = test: Time at which plasma concentration stays above invitro effective concentration for inhibition of ALDH1A3 in human OVCAR5 cells in CD1 mouse at 10 mg/kg, ip by LC-MS/MS analysis; format: organism-based; conditions: in vivo
# Mus musculus [9] = test: Time at which plasma concentration stays above invitro effective concentration for inhibition of ALDH1A3 in human PEO1 cells in CD1 mouse at 10 mg/kg, ip by LC-MS/MS analysis; format: organism-based; conditions: in vivo
Structure (SMILES),solubility thermodynamic [1] [µM],t1/2 [7] [min],other results
Cc1ccccc1-n1c(SCc2cccc(F)c2)nc2c(cnn2C)c1=O,38,–,–
Cn1ncc2c(=O)n(Cc3ccccc3)c(SCc3cccc(F)c3)nc21,5,–,–
Cn1ncc2c(=O)n(-c3cccc(Cl)c3)c(SCc3cccc(F)c3)nc21,55,–,–
Cn1ncc2c(=O)n(CCc3ccccc3)c(SCc3cccc(F)c3)nc21,3,–,–
Cc1ccccc1-n1c(SCc2cccc(F)c2)nc2[nH]ncc2c1=O,2,9,–

# The next lines start with results.
solubility thermodynamic [1] [µM],t1/2 [7] [min],Structure (SMILES),other results
5,–,O=c1c2cn(C3COC3)nc2nc(SCc2cccc(F)c2)n1-c1ccccc1,concentration at 0.5 h [2]: 7600 nM; concentration at 2 h [3]: 5200 nM; concentration at 4 h [4]: 3000 nM; concentration at 7 h [5]: 900 nM; AUC (Mus musculus [6]): 27.8 µM·h
< 0.7,–,Cn1ncc2c(=O)n(-c3ccccc3)c(SCc3cccc(F)c3)nc21,–
69,13,Cn1cc2c(=O)n(-c3ccccc3)c(SCc3cccc(F)c3)nc2n1,–
8,–,O=c1c2cnn(C3COC3)c2nc(SCc2cccc(F)c2)n1-c1ccccc1,–
53,27,O=c1c2cn(CC3COC3)nc2nc(SCc2cccc(F)c2)n1-c1ccccc1,concentration at 0.5 h [2]: 5600 nM; concentration at 2 h [3]: 2600 nM; concentration at 4 h [4]: 600 nM; concentration at 7 h [5]: 100 nM; AUC (Mus musculus [6]): 11 µM·h; Time (Mus musculus [8]): 4 h; Time (Mus musculus [9]): 4 h

# Source: ChEMBL document CHEMBL4196215 (J Med Chem, 2018)
